The test system of the experiment is HIV. Kind of experiment: MT4 assay: antiviral HIV activity in MT-4 cells. It counts as cell-based. As to conditions: read-out 96 hours later with cell titer glo, 10 point dose response. Summed up:
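Compounds tested in HTLV-1-transformed MT-4 cells for protection from HIV, with cytotoxicity run in parallel under the same conditions; CellTiter-Glo luminescence read 96 h later. IC50 from 10-point, 3–4-fold serial dilutions spanning >1000-fold, % inhibition relative to no-compound control, fitted by four-parameter logistic.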

[1] abbreviates: Human immunodeficiency virus 1, MT4, 96 h, read-out: HIV MT4 Assay IC50 (μM), HTLV-1 transformed cell line MT-4.
The mark [2] stands for this setting: read-out: HIV MT4 Assay IC50, HTLV-1 transformed cell line MT-4.

Molecules are shown by their SMILES. Where two headings read alike, the source gives them in different places.

As a reminder, the IC50 is the midpoint of a concentration-inhibition curve. As for `Cc1nc2c(ccn2Cc2c(F)cccc2Cl)c(-c2ccc3c(c2)CCCO3)c1C(OC(C)(C)C)C(=O)O` (stereo not drawn) [Example 56, 2-(tert-butoxy)-2-(1-(2-chloro-6-fluorobenzyl)-4-(chroman-6-yl)-6-methyl-1H-pyrrolo[2,3-b]pyridin-5-yl)acetic acid], the half-maximal inhibitory concentration (IC50) under setting [1] came out at 0.025 µM. On to `Cc1nc2c(ccn2Cc2cccc(F)c2F)c(-c2ccc3c(c2)CCCO3)c1[C@H](OC(C)(C)C)C(=O)O` [Example 57, (S)-2-(tert-butoxy)-2-(4-(chroman-6-yl)-1-(2,3-difluorobenzyl)-6-methyl-1H-pyrrolo[2,3-b]pyridin-5-yl)acetic acid], for which the 50% inhibitory concentration (IC50) under setting [1] was determined as 0.027 µM. The same measure, in the same setting: the value for `Cc1nc2c(ccn2Cc2cc(F)ccc2F)c(-c2ccc3c(c2)CCCO3)c1[C@H](OC(C)(C)C)C(=O)O` [Example 58, (S)-2-(tert-butoxy)-2-(4-(chroman-6-yl)-1-(2,5-difluorobenzyl)-6-methyl-1H-pyrrolo[2,3-b]pyridin-5-yl)acetic acid] was 0.08 µM; that for `Cc1nc2c(ccn2Cc2ccc(C(F)(F)F)cc2F)c(-c2ccc3c(c2)CCCO3)c1C(OC(C)(C)C)C(=O)O` (stereo not drawn) [Example 59, 2-(tert-butoxy)-2-(4-(chroman-6-yl)-1-(2-fluoro-4-(trifluoromethyl)benzyl)-6-methyl-1H-pyrrolo[2,3-b]pyridin-5-yl)acetic acid] was 0.38 µM; that for `Cc1nc2c(ccn2Cc2cccc(OC(F)(F)F)c2)c(-c2ccc3c(c2)CCCO3)c1C(OC(C)(C)C)C(=O)O` (stereo not drawn) [Example 60, 2-(tert-butoxy)-2-(4-(chroman-6-yl)-6-methyl-1-(3-(trifluoromethoxy)benzyl)-1H-pyrrolo[2,3-b]pyridin-5-yl)acetic acid] was 0.181 µM. The same measure, in the same setting: the figure for `COc1cccc(Cn2ccc3c(-c4ccc5c(c4)CCCO5)c(C(OC(C)(C)C)C(=O)O)c(C)nc32)c1` (stereo not drawn) [Example 61, 2-(tert-butoxy)-2-(4-(chroman-6-yl)-1-(3-methoxybenzyl)-6-methyl-1H-pyrrolo[2,3-b]pyridin-5-yl)acetic acid] is 0.41 µM; for `Cc1nc2c(ccn2Cc2ccc(-n3cncn3)cc2)c(-c2ccc3c(c2)CCCO3)c1C(OC(C)(C)C)C(=O)O` (stereo not drawn) [Example 62, 2-(1-(4-(1H-1,2,4-triazol-1-yl)benzyl)-4-(chroman-6-yl)-6-methyl-1H-pyrrolo[2,3-b]pyridin-5-yl)-2-(tert-butoxy)acetic acid] it is 0.98 µM; for `Cc1ccc(-c2c(C(OC(C)(C)C)C(=O)O)c(C)nc3c2ccn3Cc2ccc(C(F)(F)F)cc2)cc1` (stereo not drawn) [Example 63, 2-(tert-butoxy)-2-(6-methyl-4-(p-tolyl)-1-(4-(trifluoromethyl)benzyl)-1H-pyrrolo[2,3-b]pyridin-5-yl)acetic acid] it is 3.96 µM. Take `Cc1nc2c(ccn2Cc2ccc(OC(F)(F)F)cc2)c(-c2ccc3c(c2)CCCO3)c1C(OC(C)(C)C)C(=O)O` (stereo not drawn) [Example 64, 2-(tert-butoxy)-2-(4-(chroman-6-yl)-6-methyl-1-(4-(trifluoromethoxy)benzyl)-1H-pyrrolo[2,3-b]pyridin-5-yl)acetic acid]: under setting [1], the IC50 is 0.68 µM. With `Cc1nc2c(ccn2CC2CCCCC2)c(-c2ccc3c(c2)CCCO3)c1C(OC(C)(C)C)C(=O)O` (stereo not drawn) [Example 65, 2-(tert-butoxy)-2-(4-(chroman-6-yl)-1-(cyclohexylmethyl)-6-methyl-1H-pyrrolo[2,3-b]pyridin-5-yl)acetic acid], under setting [1], the IC50 stood at 0.59 µM. Turning to `Cc1nc2c(ccn2CC2CCN(C(=O)OC(C)(C)C)CC2)c(-c2ccc3c(c2)CCCO3)c1C(OC(C)(C)C)C(=O)O` (stereo not drawn) [Example 66, 2-(tert-butoxy)-2-(1-((1-(tert-butoxycarbonyl)piperidin-4-yl)methyl)-4-(chroman-6-yl)-6-methyl-1H-pyrrolo[2,3-b]pyridin-5-yl)acetic acid], the half-inhibitory concentration (IC50) under setting [1] worked out at 7.34 µM. Same read-out and setting: the figure for `Cc1nc2c(ccn2CC2CCOCC2)c(-c2ccc3c(c2)CCCO3)c1C(OC(C)(C)C)C(=O)O` (stereo not drawn) [Example 67, 2-(tert-butoxy)-2-(4-(chroman-6-yl)-6-methyl-1-((tetrahydro-2H-pyran-4-yl)methyl)-1H-pyrrolo[2,3-b]pyridin-5-yl)acetic acid] is 0.59 µM; for `Cc1nc2c(ccn2CC2CCC2)c(-c2ccc3c(c2)CCCO3)c1C(OC(C)(C)C)C(=O)O` (stereo not drawn) [Example 68, 2-(tert-butoxy)-2-(4-(chroman-6-yl)-1-(cyclobutylmethyl)-6-methyl-1H-pyrrolo[2,3-b]pyridin-5-yl)acetic acid] it is 0.72 µM; for `Cc1ccc(-c2c(C(OC(C)(C)C)C(=O)O)c(C)nc3c2ccn3Cc2ccc(F)c(C(F)(F)F)c2)cc1` (stereo not drawn) [Example 69, 2-(tert-butoxy)-2-(1-(4-fluoro-3-(trifluoromethyl)benzyl)-6-methyl-4-(p-tolyl)-1H-pyrrolo[2,3-b]pyridin-5-yl)acetic acid] it is 0.25 µM. Same read-out and setting: the value for `Cc1ccc(-c2c(C(OC(C)(C)C)C(=O)O)c(C)nc3c2ccn3Cc2ccc(F)cc2C)cc1` (stereo not drawn) [Example 70, 2-(tert-butoxy)-2-(1-(4-fluoro-2-methylbenzyl)-6-methyl-4-(p-tolyl)-1H-pyrrolo[2,3-b]pyridin-5-yl)acetic acid] was 0.04 µM. For `Cc1nc2c(ccn2C(C)c2ccc(F)c(F)c2)c(-c2ccc3c(c2)CCCO3)c1C(OC(C)(C)C)C(=O)O` (stereo not drawn) [Example 71, 2-(tert-butoxy)-2-(4-(chroman-6-yl)-1-(1-(3,4-difluorophenyl)ethyl)-6-methyl-1H-pyrrolo[2,3-b]pyridin-5-yl)acetic acid], the IC50 under setting [2] was 0.016 µM. The same measure, in the same setting: the figure for `Cc1nc2c(ccn2C(C)c2ccc(F)c(F)c2)c(-c2ccc3c(c2)CCCO3)c1C(OC(C)(C)C)C(=O)O` (stereo not drawn) [Example 72, 2-(tert-butoxy)-2-(4-(chroman-6-yl)-1-(1-(3,4-difluorophenyl)ethyl)-6-methyl-1H-pyrrolo[2,3-b]pyridin-5-yl)acetic acid] is 0.19 µM. As to `Cc1ccc(-c2c(C(OC(C)(C)C)C(=O)O)c(C)nc3c2ccn3C2CCCCC2)cc1` (stereo not drawn) [Example 73, 2-(tert-Butoxy)-2-[1-cyclohexyl-6-methyl-4-(4-methylphenyl)-1H-pyrrolo[2,3-b]pyridin-5-yl]acetic acid], the IC50 under setting [1] came to 1.31 µM. For the compound `Cc1ccc(-c2c(C(OC(C)(C)C)C(=O)O)c(C)nc3c2ccn3C2CCC(C)CC2)cc1` [Example 74, 2-(tert-butoxy)-2-(6-methyl-1-((1R,4R)-4-methylcyclohexyl)-4-(p-tolyl)-1H-pyrrolo[2,3-b]pyridin-5-yl)acetic acid], the IC50 under setting [1] turned out to be 2.33 µM. For the compound `COCCn1ccc2c(-c3ccc(C)cc3)c(C(OC(C)(C)C)C(=O)O)c(C)nc21` (stereo not drawn) [Example 75, 2-(tert-Butoxy)-2-(1-(2-methoxyethyl)-6-methyl-4-(p-tolyl)-1H-pyrrolo[2,3-b]pyridin-5-yl)acetic acid], the IC50 under setting [1] came to 4.1 µM.

In the case of `Cc1ccc(-c2c(C(OC(C)(C)C)C(=O)O)c(C)nc3c2ccn3CC(C)(C)C)cc1` (stereo not drawn) [Example 76, 2-(tert-butoxy)-2-(6-methyl-1-neopentyl-4-(p-tolyl)-1H-pyrrolo[2,3-b]pyridin-5-yl)acetic acid], the IC50 under setting [1] came to 0.9 µM. Consider `Cc1ccc(-c2c(C(OC(C)(C)C)C(=O)O)c(C)nc3c2ccn3Cc2ccc(Cl)cc2)cc1` (stereo not drawn) [Example 77, 2-(tert-Butoxy)-2-(1-(4-chlorobenzyl)-6-methyl-4-(p-tolyl)-1H-pyrrolo[2,3-b]pyridin-5-yl)acetic acid], for which the IC50 under setting [1] came to 0.65 µM. Same read-out and setting: the figure for `Cc1ccc(-c2c(C(OC(C)(C)C)C(=O)O)c(C)nc3c2ccn3Cc2cc(F)cc(F)c2)cc1` (stereo not drawn) [Example 78, 2-(tert-Butoxy)-2-(1-(3,5-difluorobenzyl)-6-methyl-4-(p-tolyl)-1H-pyrrolo[2,3-b]pyridin-5-yl)acetic acid] is 0.35 µM. The same measure, in the same setting: the figure for `Cc1ccc(-c2c(C(OC(C)(C)C)C(=O)O)c(C)nc3c2ccn3CCOCc2ccccc2)cc1` (stereo not drawn) [Example 79, 2-(1-(2-(benzyloxy)ethyl)-6-methyl-4-(p-tolyl)-1H-pyrrolo[2,3-b]pyridin-5-yl)-2-(tert-butoxy)acetic acid] is 4.87 µM. Still for that read-out and setting: the value for `Cc1ccc(-c2c(C(OC(C)(C)C)C(=O)O)c(C)nc3c2ccn3Cc2ccc3c(c2)OCO3)cc1` (stereo not drawn) [Example 80, 2-(1-(Benzo[d][1,3]dioxol-5-ylmethyl)-6-methyl-4-(p-tolyl)-1H-pyrrolo[2,3-b]pyridin-5-yl)-2-(tert-butoxy)acetic acid] was 0.8 µM; that for `Cc1nc2c(ccn2[C@H](C)c2ccc(F)cc2)c(-c2ccc3c(c2)CCCO3)c1C(OC(C)(C)C)C(=O)O` (stereo partly drawn) [Example 81] was 0.03 µM; that for `Cc1nc2c(ccn2C2(c3ccc(F)cc3)CC2)c(-c2ccc3c(c2)CCCO3)c1C(OC(C)(C)C)C(=O)O` (stereo not drawn) [Example 82, 2-(tert-butoxy)-2-(4-(chroman-6-yl)-1-(1-(4-fluorophenyl)cyclopropyl)-6-methyl-1H-pyrrolo[2,3-b]pyridin-5-yl)acetic acid] was 0.3 µM. For the compound `Cc1nc2c(ccn2[C@@H](C)c2ccc(F)cc2)c(-c2ccc3c(c2)CCCO3)c1C(OC(C)(C)C)C(=O)O` (stereo partly drawn) [Example 83], under setting [1], the IC50 came out at 0.123 µM. For `Cc1nc2c(ccn2[C@@H](C)c2ccc(F)cc2)c(-c2ccc3c(c2)CCCO3)c1[C@@H](OC(C)(C)C)C(=O)O` [Example 84, (R)-2-(tert-butoxy)-2-(4-(chroman-6-yl)-1-((S)-1-(4-fluorophenyl)ethyl)-6-methyl-1H-pyrrolo[2,3-b]pyridin-5-yl)acetic acid], the IC50 under setting [1] was 0.124 µM. Still for that read-out and setting: the figure for `Cc1nc2c(ccn2[C@@H](C)c2ccc(F)cc2)c(-c2ccc3c(c2)CCCO3)c1[C@H](OC(C)(C)C)C(=O)O` [Example 85, (S)-2-(tert-butoxy)-2-(4-(chroman-6-yl)-1-((S)-1-(4-fluorophenyl)ethyl)-6-methyl-1H-pyrrolo[2,3-b]pyridin-5-yl)acetic acid] is 0.955 µM.

Values taken from patent US8609653B2, “Azaindole compounds and methods for treating HIV” (priority 2011, dated 2013).
